Ten molecules from patent US20100256152A1, “NOVEL PHARMACEUTICAL COMPOSITION FOR TREATMENT OF SCHIZOPHRENIA” (ASTELLAS PHARMA INC., priority 2009, published 2010) can be followed below.

Data set [1] relates to methamphetamine induced hyperlocomotion. The data set can be described thus: Methamphetamine induced hyperlocomotion model. The settings on record: smallest oral dose giving significantly small activity vs solvent group; mouse; as free form. The class given is in vivo, male ddY mouse. How it is done:
Verification of the therapeutic effect on schizophrenia was carried out using a methamphetamine induced hyperlocomotion model. Methamphetamine is a psychostimulant, and is known to cause symptoms that are similar to schizophrenia by increasing the transmission in the dopaminergic neurons. The abnormal behavior produced when methamphetamine is administered to an animal is generally used as a screening method for a therapeutic drug for schizophrenia (Oka et al., 1993, J. Pharmacol. Exp. Ther., 264:158-165, herein incorporated by reference). That is, a male ddY mouse was placed in an activity monitoring apparatus, and after 30 minutes, methamphetamine was administered. After administering methamphetamine, the mouse was immediately returned to the monitoring apparatus, and the activity for one hour from immediately after the return was measured. For the measurement of the activity, a Supermex sensor manufactured by Muromachi Kikai Co., Ltd. was used. […] The solvent used was a 0.5% aqueous solution of methylcellulose. The statistical analysis was carried out between the solvent administered group and the drug administered groups, using Dunnett's test.
The test compounds (1) to (5) all suppressed methamphetamine induced hyperlocomotion.

In data set [2] the test system is phencyclidine induced prolonged immobility. The data set can be described thus: Phencyclidine induced prolonged immobility model (forced swimming test). Format: in vivo, male ddY mouse. The settings on record: mouse; for phencyclidine induced prolonged immobility improving action (in words): oral administration; for Minimum effective dose (mg/kg p.o.) (Example 3): smallest oral dose giving significantly short immobility time vs solvent group, 1 h after administration, as free form. As for the experimental part:
Verification of the therapeutic effect on schizophrenia was carried out using a phencyclidine induced prolonged immobility model. Phencyclidine is a non-competitive antagonist of the N-methyl-D-aspartate receptor, a type of glutamate receptor, and abuse of this agent causes development of psychotic symptoms indistinguishable from those of schizophrenia. […] Forced swimming test is used as a screening assay for antidepressants, because immobility in this test is thought to reflect some aspect of depression such as lowering of motivation. Negative symptoms of schizophrenia also includes similar aspects, we could evaluate the efficacy of drugs for negative symptoms, such as apathy, using this test. Briefly, a male ddY mouse was gently placed in a cylindrical pool, and activity was measured for 3 min with SCANET (MV20-LAN, MELQUEST). Afterward immobility time was calculated with the SCANET file integrating software. Two days later, Mice were anesthetized with sodium pentobarbital. The Osmotic mini pumps (Alzet model 1002, DURECT Corporation) were subcutaneously implanted to mice. The pump infused saline or phencyclidine 1.2 mg/day/mouse with pumping rate of 0.25 μL/hour. Fourteen days after implantation, a test compound was administered to mice and an hour after administration, each mouse was gently placed in a cylindrical pool, and activity was measured for 3 min. Afterward immobility time was calculated. […] The solvent used was a 0.5% aqueous solution of methylcellulose. The statistical analysis was carried out between the solvent administered group and the drug administered groups, using Dunnett's test.

Data set [3] concerns phencyclidine induced prolonged finding latency. The data set can be described thus: Water finding task in mice after neonatal treatment with phencyclidine. As to conditions: mouse; for phencyclidine induced prolonged finding latency improving action (in words): oral administration; for Minimum effective dose (mg/kg p.o.) (Example 4): smallest oral dose giving significantly short finding latency vs solvent group, as free form. The class given is in vivo, male ddY mice. How it is done: Verification of the therapeutic effect on schizophrenia was carried out using a water finding task in mice after neonatal treatment with phencyclidine. […] In addition, it has been reported that chronic treatment of PCP prolonged finding latency in the water-finding task (Mouri et al., 2007, Mol. Pharmacol., 180:152-60, herein incorporated by reference). Finding latency in the water-finding task provides a measure of latent learning in animals, which is thought to reflect attention. Attention is one of the most important domain of cognitive impairments in schizophrenia, we could evaluate the efficacy of drugs for cognitive impairments in schizophrenia using this task. Briefly, male ddY mice subcutaneously received PCP at a dose of 15 mg/kg or saline on postnatal day 7, 9 and 11. During the adult 7 weeks old, test compounds were orally administered to animals and 60 minutes later, the animals were placed in one corner of the open field and allowed to freely explore the training apparatus for 3 min. Immediately after the training trial, the animals were returned to their home cage and deprived of water until the test trial the next day. In the test trial, the mice were again placed individually in the test apparatus. The time between entering the alcove and drinking the water was measured. […] The solvent used was a 0.5% aqueous solution of methylcellulose. The statistical analysis was carried out between the solvent administered group and the drug administered groups, using Dunnett's test.

In data set [4] the target is T1, BEC1 potassium channel (Homo sapiens, UniProt Q9ULD8).
T1 construct: expressed in transfected cells
T1 sequence (Q9ULD8 1-1083): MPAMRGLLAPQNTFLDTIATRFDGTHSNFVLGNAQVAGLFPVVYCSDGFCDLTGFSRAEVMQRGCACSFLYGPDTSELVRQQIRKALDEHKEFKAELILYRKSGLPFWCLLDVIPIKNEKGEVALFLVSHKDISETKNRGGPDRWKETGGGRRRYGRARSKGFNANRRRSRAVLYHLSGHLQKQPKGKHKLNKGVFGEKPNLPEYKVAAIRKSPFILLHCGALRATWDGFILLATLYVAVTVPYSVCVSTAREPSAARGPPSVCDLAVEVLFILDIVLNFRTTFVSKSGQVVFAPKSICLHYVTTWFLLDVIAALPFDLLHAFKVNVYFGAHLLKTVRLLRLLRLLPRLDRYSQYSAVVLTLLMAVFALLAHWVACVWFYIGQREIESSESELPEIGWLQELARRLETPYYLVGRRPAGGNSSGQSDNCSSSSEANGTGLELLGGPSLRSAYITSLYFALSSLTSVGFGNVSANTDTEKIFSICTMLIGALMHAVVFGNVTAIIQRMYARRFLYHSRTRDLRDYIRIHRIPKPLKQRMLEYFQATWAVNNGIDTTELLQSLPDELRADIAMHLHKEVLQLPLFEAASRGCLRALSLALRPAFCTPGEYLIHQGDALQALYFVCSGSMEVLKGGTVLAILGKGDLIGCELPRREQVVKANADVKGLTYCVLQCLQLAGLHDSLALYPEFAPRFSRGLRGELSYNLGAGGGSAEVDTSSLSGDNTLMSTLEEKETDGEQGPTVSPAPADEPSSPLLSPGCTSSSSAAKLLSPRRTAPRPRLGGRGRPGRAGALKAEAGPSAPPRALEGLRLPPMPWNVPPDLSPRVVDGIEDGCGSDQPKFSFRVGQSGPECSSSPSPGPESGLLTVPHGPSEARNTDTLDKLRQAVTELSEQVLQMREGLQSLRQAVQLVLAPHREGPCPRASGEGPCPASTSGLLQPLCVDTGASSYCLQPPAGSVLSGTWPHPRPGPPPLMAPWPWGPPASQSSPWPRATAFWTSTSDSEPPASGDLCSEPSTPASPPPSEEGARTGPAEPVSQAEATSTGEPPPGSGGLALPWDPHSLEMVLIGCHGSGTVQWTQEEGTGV
Kind of data set: BEC1 inhibitory activity, 86Rb ion release from BEC1 expressing cells. The class given is cell-based. As to conditions: BEC1 stably expressing CHO (dhfr-deficient) cells, 100 mM KCl stimulation, 86Rb release; as free form; read-out: IC50 (μM) (Example 1). How it is done:
Method for measuring BEC1 inhibitory activity of compound utilizing 86Rb ion release amount as index
The channel activity of BEC1 was measured according to the method described in U.S. Pat. No. 6,326,168 or U.S. Pat. No. 7,375,222, herein incorporated by reference, utilizing the release of the ions of radioactive isotope 86Rb from BEC1 expressing cells as an index. Specifically, when BEC1 expressing cells which had taken in 86Rb ions were stimulated with 100 mM KCl, the radioactivity released from the same cells was designated as the channel activity of BEC1. 86Rb ions were incorporated into cells by culturing (3 hours, 37° C.) BEC1 stably expressing cells in the presence of 86RbCl (0.5 μCi/ml), and the unincorporated 86Rb ions were removed by washing the cells three times with HEPES buffered physiological saline (pH 7.4, 2.5 mM KCl). The same cells were incubated for 15 minutes at room temperature in the presence of a DMSO solution containing the test compound and HEPES buffered physiological saline, and then were further incubated for 5 minutes at room temperature in the presence of a 100 mM KCl-containing HEPES buffer solution (pH 7.4) containing the same compound. The extracellular fluid was recovered, and then the remaining cells were lysed in 0.1 N NaOH and recovered. The Cherenkov radioactivities of the extracellular fluid and the cell lysate were respectively measured, and the sum was designated as the total radioactivity. The release amount of 86Rb ions was expressed as the percentage of the radioactivity of the extracellular fluid with respect to the total radiation activity. The value obtained in the presence of the compound was designated as a test value, the value obtained in the absence of the compound was designated as a control value, and the value obtained when the cells were not stimulated with 100 mM KCl was designated as a blank value. […] In addition, as for the BEC1 expressing cells, BEC1 stably expressing cells produced according to the method described in U.S. Pat. No. 6,326,168 or U.S. Pat. No. 7,375,222, herein incorporated by reference, using a dihydrofolate reductase (dhfr)-deficient strain of Chinese Hamster ovary cells, were used.

Each structure is given as a SMILES string. Counter-ions that a name gives are not always drawn.

In general, melting point refers to the temperature of the solid-liquid transition. For `Fc1ccc(Nc2nc(NCc3ncccn3)nc(Nc3ccc(F)cc3)n2)cc1` (as salt: HCl) [Compound 2a, N,N′-bis(4-fluorophenyl)-N″-(pyrimidin-2-ylmethyl)-1,3,5-triazine-2,4,6-triamine], the melting point lay within 183 to 186 °C.
Usually IC50 stands for the midpoint of a concentration-inhibition curve. Turning to `Fc1ccc(Nc2nc(NCc3ncccn3)nc(Nc3ccccc3)n2)cc1` [Compound 1, N-(4-fluorophenyl)-N′-phenyl-N″-(pyrimidin-2-ylmethyl)-1,3,5-triazine-2,4,6-triamine], in data set [1], the “Minimum effective dose (mg/kg p.o.) (Example 2)” value is reported as 0.1 mg/kg p.o. In data set [2], the “phencyclidine induced prolonged immobility improving action (in words)” value was “suppressed phencyclidine induced prolongation of immobility time” and the “Minimum effective dose (mg/kg p.o.) (Example 3)” value was 0.03 mg/kg p.o. Further, in data set [3], the “phencyclidine induced prolonged finding latency improving action (in words)” value was “suppressed phencyclidine induced prolongation of finding latency” and the “Minimum effective dose (mg/kg p.o.) (Example 4)” value was found to be 0.03 mg/kg p.o. The half-maximal inhibitory concentration (IC50) in data set [4] turned out to be 0.077 µM.
Regarding `Fc1ccc(Nc2nc(NCc3ncccn3)nc(Nc3ccc(F)cc3)n2)cc1` [Compound 2a, N,N′-bis(4-fluorophenyl)-N″-(pyrimidin-2-ylmethyl)-1,3,5-triazine-2,4,6-triamine], in data set [1], the “Minimum effective dose (mg/kg p.o.) (Example 2)” value turned out to be 0.03 mg/kg p.o. In addition, the IC50 in data set [4] was determined as 0.065 µM.
For `Fc1ccc(Nc2nc(NCc3ncccn3)nc(Nc3ccc(F)cc3)n2)cc1` [Compound 2b, N,N′-bis(4-fluorophenyl)-N″-(pyrimidin-2-ylmethyl)-1,3,5-triazine-2,4,6-triamine], in data set [2], the “phencyclidine induced prolonged immobility improving action (in words)” value is on record as “suppressed phencyclidine induced prolongation of immobility time” and the “Minimum effective dose (mg/kg p.o.) (Example 3)” value stood at 0.01 mg/kg p.o. Also, in data set [3], the “phencyclidine induced prolonged finding latency improving action (in words)” value is “suppressed phencyclidine induced prolongation of finding latency” and the “Minimum effective dose (mg/kg p.o.) (Example 4)” value was 0.01 mg/kg p.o.
Consider `COc1ccc(Nc2nc(NCc3ncccn3)nc(Nc3ccc(F)cc3)n2)cc1` [Compound 3, N-(4-fluorophenyl)-N′-(4-methoxyphenyl)-N″-(pyrimidin-2-ylmethyl)-1,3,5-triazine-2,4,6-triamine], for which the “Minimum effective dose (mg/kg p.o.) (Example 2)” value in data set [1] worked out at 0.03 mg/kg p.o. Further, the IC50 in data set [4] is 0.092 µM.
For `Fc1ccc(Nc2nc(NCc3ccncn3)nc(Nc3ccc(F)cc3)n2)cc1` [Compound 4, N,N′-bis(4-fluorophenyl)-N″-(pyrimidin-4-ylmethyl)-1,3,5-triazine-2,4,6-triamine], the “Minimum effective dose (mg/kg p.o.) (Example 2)” value in data set [1] is recorded as 0.01 mg/kg p.o. For the same molecule, in data set [4], the IC50 turned out to be 0.058 µM.
On to `Cl.Fc1ccc(Nc2nc(NCc3ccnc(F)c3)nc(Nc3ccccc3)n2)cc1` [Compound 5, N-(4-fluorophenyl)-N′-[(2-fluoro-4-pyridyl)methyl]-N″-phenyl-1,3,5-triazine-2,4,6-triamine hydrochloride], for which the “Minimum effective dose (mg/kg p.o.) (Example 2)” value in data set [1] turned out to be 1.0 mg/kg p.o.
As to `Cc1ccc(Nc2nc(NCc3ccnc(F)c3)nc(Nc3ccc(F)cc3)n2)cc1` [Compound 7, N-(4-fluorophenyl)-N′-[(2-fluoro-4-pyridyl)methyl]-N″-(4-methylphenyl)-1,3,5-triazine-2,4,6-triamine hydrochloride], the IC50 in data set [4] is 0.24 µM.
Same read-out and setting: with `COc1ccc(Nc2nc(NCc3ccnc(F)c3)nc(Nc3ccc(F)cc3)n2)cc1` [Compound 8, N-(4-fluorophenyl)-N′-[(2-fluoro-4-pyridyl)methyl]-N″-(4-methoxyphenyl)-1,3,5-triazine-2,4,6-triamine hydrochloride] the figure was 0.17 µM; with `COc1cccc(Nc2nc(NCc3ccnc(F)c3)nc(Nc3ccc(F)cc3)n2)c1` [Compound 10, N-(4-fluorophenyl)-N′-[(2-fluoro-4-pyridyl)methyl]-N″-(3-methoxyphenyl)-1,3,5-triazine-2,4,6-triamine hydrochloride], 0.25 µM.
